Our source for the mutagenic call values is PubChem BioAssay AID1259407 (Chemical Carcinogenesis Research Information System (CCRIS), 2018).

SMILES strings stand for the structures. The source made the active and inactive calls. No rule for the calls is given here.

In this series the test system is CCRIS mutagenicity, Ames/micronucleus/aberration tests. The series is described as follows: CCRIS mutagenicity studies.
Where [1] appears, read: Test System: AMES SALMONELLA TYPHIMURIUM, Strain/Indicator: TA98, Metabolic Activation: HAMSTER, LIVER, S-9, AROCLOR 1254 (10%), Method: PREINCUBATION
[2] abbreviates: Test System: AMES SALMONELLA TYPHIMURIUM, Strain/Indicator: TA98, Metabolic Activation: NONE, Method: PREINCUBATION
[3] abbreviates: Test System: AMES SALMONELLA TYPHIMURIUM, Strain/Indicator: TA98, Metabolic Activation: RAT, LIVER, S-9, AROCLOR 1254 (10%), Method: PREINCUBATION
Where [4] appears, read: Test System: AMES SALMONELLA TYPHIMURIUM, Strain/Indicator: TA100, Metabolic Activation: HAMSTER, LIVER, S-9, AROCLOR 1254 (10%), Method: PREINCUBATION
The mark [5] stands for this setting: Test System: AMES SALMONELLA TYPHIMURIUM, Strain/Indicator: TA100, Metabolic Activation: NONE, Method: PREINCUBATION
[6] abbreviates: Test System: AMES SALMONELLA TYPHIMURIUM, Strain/Indicator: TA100, Metabolic Activation: RAT, LIVER, S-9, AROCLOR 1254 (10%), Method: PREINCUBATION
The mark [7] stands for this setting: Test System: AMES SALMONELLA TYPHIMURIUM, Strain/Indicator: TA1535, Metabolic Activation: HAMSTER, LIVER, S-9, AROCLOR 1254 (10%), Method: PREINCUBATION
[8] abbreviates: Test System: AMES SALMONELLA TYPHIMURIUM, Strain/Indicator: TA1535, Metabolic Activation: NONE, Method: PREINCUBATION
Setting [9] is: Test System: AMES SALMONELLA TYPHIMURIUM, Strain/Indicator: TA1535, Metabolic Activation: RAT, LIVER, S-9, AROCLOR 1254 (10%), Method: PREINCUBATION
[10] abbreviates: Test System: AMES SALMONELLA TYPHIMURIUM, Strain/Indicator: TA1537, Metabolic Activation: HAMSTER, LIVER, S-9, AROCLOR 1254 (10%), Method: PREINCUBATION
Where [11] appears, read: Test System: AMES SALMONELLA TYPHIMURIUM, Strain/Indicator: TA1537, Metabolic Activation: NONE, Method: PREINCUBATION
Where [12] appears, read: Test System: AMES SALMONELLA TYPHIMURIUM, Strain/Indicator: TA1537, Metabolic Activation: RAT, LIVER, S-9, AROCLOR 1254 (10%), Method: PREINCUBATION
Where [13] appears, read: Test System: AMES SALMONELLA TYPHIMURIUM, Strain/Indicator: TA98, Metabolic Activation: NONE, Method: STANDARD PLATE.
[14] abbreviates: Test System: AMES SALMONELLA TYPHIMURIUM, Strain/Indicator: TA100, Metabolic Activation: NONE, Method: STANDARD PLATE.
Where [15] appears, read: Test System: AMES SALMONELLA TYPHIMURIUM, Strain/Indicator: TA98, Metabolic Activation: RAT, LIVER, S-9, PHENOBARBITAL, Method: STANDARD PLATE.
Where [16] appears, read: Test System: AMES SALMONELLA TYPHIMURIUM, Strain/Indicator: TA100, Metabolic Activation: RAT, LIVER, S-9, PHENOBARBITAL, Method: STANDARD PLATE.

Take `Cc1ccc(C(C)C)c(O)c1`: the mutagenic call is “inactive; negative; toxic at 520 um” (End Point: IN VITRO CHROMOSOMAL ABERRATIONS, Test System: SYRIAN HAMSTER EMBRYO (SHE) CELLS, Metabolic Activation: NONE); “active; positive (structural changes)” (End Point: IN VITRO CHROMOSOMAL ABERRATIONS, Test System: SYRIAN HAMSTER EMBRYO (SHE) CELLS, Metabolic Activation: RAT, LIVER, S-9); “active; positive” (End Point: In vitro micronucleus, Test System: Human peripheral lymphocytes); “active; positive (structural and numerical changes)” (End Point: In vivo chromosomal aberrations, Test System: Bone marrow cells, Species: Rat, Strain/Sex: Sprague-Dawley/Male, Route: Intraperitoneal); “active; positive (structural changes)” (End Point: In vivo chromosomal aberrations, Test System: Human peripheral lymphocytes); “inactive; negative” (Test System: AMES SALMONELLA TYPHIMURIUM, Strain/Indicator: TA97, Metabolic Activation: NONE, Method: PREINCUBATION (20 MIN)). The mutagenic call (Test System: AMES SALMONELLA TYPHIMURIUM, Strain/Indicator: TA97, Metabolic Activation: S-9, Method: PREINCUBATION (20 MIN)) is “inactive; negative”; the mutagenic call (Test System: AMES SALMONELLA TYPHIMURIUM, Strain/Indicator: TA98, Metabolic Activation: NONE, Method: PREINCUBATION (20 MIN)) is “inactive; negative”; the mutagenic call (Test System: AMES SALMONELLA TYPHIMURIUM, Strain/Indicator: TA98, Metabolic Activation: S-9, Method: PREINCUBATION (20 MIN)) was “inactive; negative”; the mutagenic call (Test System: AMES SALMONELLA TYPHIMURIUM, Strain/Indicator: TA100, Metabolic Activation: NONE, Method: PREINCUBATION (20 MIN)) is “inactive; negative”; the mutagenic call (Test System: AMES SALMONELLA TYPHIMURIUM, Strain/Indicator: TA100, Metabolic Activation: S-9, Method: PREINCUBATION (20 MIN)) was “inactive; negative”.
In the case of `CN(C)CCN(Cc1ccc(Cl)s1)c1ccccn1`, the mutagenic call was “inactive; negative” under setting [1]; “inactive; negative” under setting [2]; “inactive; negative” under setting [3]; “inactive; negative” under setting [4]; “inactive; negative” under setting [5]; “inactive; negative” under setting [6]. In addition, the mutagenic call by setting is: under setting [7], “inactive; negative”; under setting [8], “inactive; negative”; under setting [9], “inactive; negative”; under setting [10], “inactive; negative”; under setting [11], “inactive; negative”; under setting [12], “inactive; negative”.
Consider `[Cu+2].[O-]c1cccc2cccnc12.[O-]c1cccc2cccnc12`, for which the mutagenic call is “inactive; negative” under setting [13]; “inactive; negative” (Test System: AMES SALMONELLA TYPHIMURIUM, Strain/Indicator: TA98, Metabolic Activation: RAT LIVER S-9, AROCLOR 1254, Method: STANDARD PLATE); “inactive; negative” under setting [14]; “active; positive” (Test System: AMES SALMONELLA TYPHIMURIUM, Strain/Indicator: TA100, Metabolic Activation: RAT LIVER S-9, AROCLOR 1254, Method: STANDARD PLATE).
As to `c1ccc2c(c1)ccc1nc3c(ccc4ccccc43)cc12`, the mutagenic call (Test System: AMES SALMONELLA TYPHIMURIUM, Strain/Indicator: TA100, Metabolic Activation: RAT, LIVER, S-9, PHENOBARBITAL AND 5,6-BENZOFLAVONE, Method: STANDARD PLATE) was “active; positive”.
In the case of `CCCN(CCCO)N=O`, for the setting “Test System: CHINESE HAMSTER V-79, Strain/Indicator: V-79/OUABAIN, Metabolic Activation: HAMSTER, HEPATOCYTES, Method: CELL-MEDIATED”, the mutagenic call is “inactive; negative”.
As for `O=c1c2c(O)cccc2oc2cc3c(c(O)c12)[C@@H]1CCO[C@@H]1O3`, the mutagenic call under setting [15] is “inactive; negative” and the mutagenic call under setting [16] is “inactive; negative”.
Turning to `CCOC(=O)COc1ccc2c(=O)cc(-c3ccccc3)oc2c1`, the mutagenic call reads like this: under setting [13], “inactive; negative”; under setting [15], “inactive; negative”; under setting [14], “inactive; negative”; under setting [16], “inactive; negative”; (Test System: AMES SALMONELLA TYPHIMURIUM, Strain/Indicator: TA1535, Metabolic Activation: NONE, Method: STANDARD PLATE) “inactive; negative”; (Test System: AMES SALMONELLA TYPHIMURIUM, Strain/Indicator: TA1535, Metabolic Activation: RAT, LIVER, S-9, PHENOBARBITAL, Method: STANDARD PLATE) “inactive; negative”. In addition, the mutagenic call (Test System: AMES SALMONELLA TYPHIMURIUM, Strain/Indicator: TA1537, Metabolic Activation: NONE, Method: STANDARD PLATE) was “inactive; negative”; the mutagenic call (Test System: AMES SALMONELLA TYPHIMURIUM, Strain/Indicator: TA1537, Metabolic Activation: RAT, LIVER, S-9, PHENOBARBITAL, Method: STANDARD PLATE) was “inactive; negative”; the mutagenic call (Test System: AMES SALMONELLA TYPHIMURIUM, Strain/Indicator: TA1538, Metabolic Activation: NONE, Method: STANDARD PLATE) is “inactive; negative”; the mutagenic call (Test System: AMES SALMONELLA TYPHIMURIUM, Strain/Indicator: TA1538, Metabolic Activation: RAT, LIVER, S-9, PHENOBARBITAL, Method: STANDARD PLATE) was “inactive; negative”.
As for `NC1CCC(CC2CCC(N)CC2)CC1` (stereo unspecified), the mutagenic call under setting [1] is “inactive; negative”; the mutagenic call under setting [2] was “inactive; negative”; the mutagenic call under setting [3] was “inactive; negative”; the mutagenic call under setting [4] is “inactive; negative”; the mutagenic call under setting [5] was “inactive; negative”; the mutagenic call under setting [6] was “inactive; negative”. Moreover, the mutagenic call runs as follows: under setting [7], “inactive; negative”; under setting [8], “inactive; negative”; under setting [9], “inactive; negative”; under setting [10], “inactive; negative”; under setting [11], “inactive; negative”; under setting [12], “inactive; negative”.
`O=[N+]([O-])c1ccc2c(c1)c([N+](=O)[O-])cc1ccccc12`: the mutagenic call runs as follows: (Test System: AMES SALMONELLA TYPHIMURIUM, Strain/Indicator: TA98(1,8-DNP6), Metabolic Activation: NONE, Method: STANDARD PLATE) “active; positive”; (Test System: AMES SALMONELLA TYPHIMURIUM, Strain/Indicator: TA98(NR), Metabolic Activation: NONE, Method: STANDARD PLATE) “active; positive”; under setting [13], “active; positive”; under setting [14], “active; positive”; (Test System: AMES SALMONELLA TYPHIMURIUM, Strain/Indicator: YG1021, Metabolic Activation: NONE, Method: STANDARD PLATE) “active; positive”; (Test System: AMES SALMONELLA TYPHIMURIUM, Strain/Indicator: YG1024, Metabolic Activation: NONE, Method: STANDARD PLATE) “active; positive”. The mutagenic call by setting is: (Test System: AMES SALMONELLA TYPHIMURIUM, Strain/Indicator: YG1026, Metabolic Activation: NONE, Method: STANDARD PLATE) “active; positive”; (Test System: AMES SALMONELLA TYPHIMURIUM, Strain/Indicator: YG1029, Metabolic Activation: NONE, Method: STANDARD PLATE) “active; positive”.
